Measurements from publication PMC9350911, “Protein–Calixarene Complexation: From Recognition to Assembly” (Accounts of Chemical Research, 2022).

Experiments:
Assay type in all cases: binding
cytochrome c (cyt c) [1] = molecular target: T1, cytochrome c (cyt c) (Saccharomyces cerevisiae, UniProt P00044); assay: ITC; X-ray cocrystal structure; details: read-out: apparent dissociation constant; cited from earlier work
T1 construct: gene CYC1

cytochrome c (cyt c) [2] = molecular target: T1, cytochrome c (cyt c); assay: ITC; X-ray cocrystal structure; NMR; SECMALS
[3] = molecular target: Penicillium antifungal protein (PAF) (Penicillium chrysogenum, UniProt Q01701); assay: ITC; X-ray cocrystal structure; NMR
cytochrome c (cyt c) [4] = molecular target: T1, cytochrome c (cyt c); assay: ITC; X-ray cocrystal structure; NMR; details: read-out: apparent dissociation constant; cited from earlier work

T1 sequence (P00044 2-109): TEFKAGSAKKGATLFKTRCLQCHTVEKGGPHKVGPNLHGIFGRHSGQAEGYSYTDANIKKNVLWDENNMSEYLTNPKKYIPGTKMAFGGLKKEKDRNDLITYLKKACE
Chain of Penicillium antifungal protein (PAF) (Q01701 38-92 limits assumed): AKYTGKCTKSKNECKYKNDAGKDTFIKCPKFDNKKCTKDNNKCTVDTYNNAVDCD

SMILES: O=S(=O)(O)c1cc2c(O)c(c1)Cc1cc(S(=O)(=O)O)cc(c1O)Cc1cc(S(=O)(=O)O)cc(c1O)Cc1cc(Br)cc(c1O)C2 [bromo-sulfonato-calix[4]arene]
- Kd (cytochrome c (cyt c) [1]): 20 µM

SMILES: O=P(O)(O)c1cc2c(O)c(c1)Cc1cc(P(=O)(O)O)cc(c1O)Cc1cc(P(=O)(O)O)cc(c1O)Cc1cc(P(=O)(O)O)cc(c1O)Cc1cc(P(=O)(O)O)cc(c1O)Cc1cc(P(=O)(O)O)cc(c1O)C2 [phosphonato-calix[6]arene]
- binding affinity (cytochrome c (cyt c) [2]): the ITC data indicated a binding affinity in the low micromolar range

SMILES: O=S(=O)(O)c1cc2c(O)c(c1)Cc1cc(S(=O)(=O)O)cc(c1O)Cc1cc(S(=O)(=O)O)cc(c1O)Cc1cc(S(=O)(=O)O)cc(c1O)C2 [sulfonato-calix[4]arene]
- binding affinity [3]: Micromolar binding affinities were determined by ITC
- Kd (cytochrome c (cyt c) [4]): 30 µM

SMILES: O=S(=O)(O)c1cc2c(O)c(c1)Cc1cc(S(=O)(=O)O)cc(c1O)Cc1cc(S(=O)(=O)O)cc(c1O)Cc1cc(S(=O)(=O)O)cc(c1O)Cc1cc(S(=O)(=O)O)cc(c1O)Cc1cc(S(=O)(=O)O)cc(c1O)C2 [sulfonato-calix[6]arene]
- binding affinity [3]: Micromolar binding affinities were determined by ITC
